Patent publication US8853246B2 (Dow AgroSciences LLC, priority 2009, dated 2014)

How the values were obtained:
[1] = tested on: Green Peach Aphid (Myzus Persicae); test: Insecticidal test for green peach aphid in foliar spray assay (col. MYZUPE); assay type: in vivo; conditions: Myzus persicae, 72 h, green peach aphid, read-out: MYZUPE 200 ppm (Corrected % Control, rating)
Summary of the method: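 Cabbage seedlings with 2-3 true leaves, infested with 20-50 wingless adult and nymph aphids one day earlier, sprayed to runoff at 200 ppm (acetone/methanol stock diluted in 0.025% Tween 20), four pots per treatment. After 3 days at ~25 °C, 40% RH, live aphids counted; corrected % control versus solvent-sprayed plants.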

[2] = tested on: Cotton Aphid (Aphis Gossypii); test: Insecticidal test for cotton aphid in foliar spray assay (col. APHIGO); assay type: in vivo; conditions: Aphis gossypii, 72 h, read-out: APHIGO 200 ppm (Corrected % Control, rating)
Method: The compounds were tested against cotton aphid, green peach aphid, and sweet potato whitefly using procedures described in the following examples and reported in Table 2.
In each case of Table 2, the rating scale is as follows at 200 ppm.
Insecticidal Test for Cotton Aphid (Aphis Gossypii) in Foliar Spray Assay
Squash or cotton seedlings with fully expanded cotyledon leaves were trimmed to one cotyledon per plant and infested with cotton aphid (wingless adult and nymph) one day prior to chemical application. Each plant was examined before chemical application to ensure uniform infestation (ca. 30-70 aphids per plant). Compounds (2 mg) were dissolved in 2 mL of acetone/methanol (1:1) solvent, forming stock solutions of 1000 ppm. The stock solutions were diluted 5× with 0.025% Tween 20 in H2O to obtain a solution at 200 ppm. A hand-held Devilbiss aspirator type sprayer was used to apply the spray solutions until runoff to both sides of the squash cotyledon leaves. Four plants (4 replications) were used for each concentration of each compound. Reference plants (solvent check) were sprayed with the diluent only. Treated plants were held in a holding room for three days at approximately 25° C. and 40% RH before the number of live aphids on each plant was recorded. Insecticidal activity was measured by Corrected % Control using Abbott's correction formula and presented in Table 2 (see col. “APHIGO”): Corrected % Control=100*(X−Y)/X • where X=No. of live aphids on solvent check plants • Y=No. of live aphids on treated plants

[3] = tested on: Sweetpotato Whitefly-Crawler (Bemisia Tabaci); test: Insecticidal test for sweetpotato whitefly-crawler in foliar spray assay (col. BEMITA); assay type: in vivo; conditions: Bemisia tabaci, sweetpotato whitefly-crawler, read-out: BEMITA 200 ppm (Corrected % Control, rating)
Summary of the method: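 Cotton plants (one 3-5 cm true leaf) infested with whitefly eggs (100-300/plant), held 5-6 days at 82° F, 50% RH until crawlers developed. Sprayed to runoff at 200 ppm (acetone stock diluted in 0.025% Tween 20), four plants per treatment. Live nymphs counted after 8-9 days; % control by Abbott's correction versus solvent check.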

SMILES	pest or weed control at 200 ppm [1] [%]	pest or weed control at 200 ppm [2] [%]	pest or weed control at 200 ppm [3] [%]	melting point [°C]
CSC(C)CC(=O)Nc1sc(-c2cncc(F)c2)nc1C (stereo not drawn) [Compound 218]	80 to 100	80 to 100	80 to 100	130 to 133
C=CCSCC(C)C(=O)Nc1sc(-c2cncc(F)c2)nc1C (stereo not drawn) [Compound 226]	80 to 100	80 to 100	80 to 100	76 to 79
CN(C(=O)OC(C)(C)C)c1sc(-c2cccnc2)nc1Cl [Compound 228, (4-chloro-2-pyridin-3-yl-thiazol-5-yl)-methyl-carbamic acid tert-butyl ester]	80 to 100	80 to 100	80 to 100	119 to 122
C=CC[S+]([O-])CC(C)C(=O)Nc1sc(-c2cncc(F)c2)nc1C (stereo not drawn) [Compound 229]	80 to 100	80 to 100	< 80	170 to 174
CN(C(=O)OC(C)(C)C)c1sc(-c2cccnc2)nc1Br [Compound 242, (4-bromo-2-pyridin-3-yl-thiazol-5-yl)-methyl-carbamic acid tert-butyl ester]	80 to 100	< 80	80 to 100	88 to 91
CN(C(=O)OC(C)(C)C)c1cnc(-c2cncc(F)c2)s1 [Compound 243]	80 to 100	80 to 100	80 to 100	148 to 151
COc1ccc(CN(C(=O)OC(C)(C)C)c2cnc(-c3cccnc3)s2)cc1 [Compound 244]	< 80	< 80	< 80	124 to 126
CCN(C(=O)OC(C)(C)C)c1cnc(-c2cncc(F)c2)s1 [Compound 245]	80 to 100	80 to 100	80 to 100	89 to 92
CCN(C(=O)C(C)C)c1sc(-c2cncc(F)c2)nc1C [Compound 253]	80 to 100	80 to 100	80 to 100	–
CCN(C(=O)C(C)(C)CSC)c1sc(-c2cncc(F)c2)nc1C [Compound 255]	80 to 100	80 to 100	80 to 100	–
CSCC(C)C(=O)N(C)c1sc(-c2cncc(F)c2)nc1Cl (stereo not drawn) [Compound 262]	80 to 100	80 to 100	80 to 100	–
CC(C[S+](C)[O-])C(=O)N(C)c1sc(-c2cncc(F)c2)nc1Cl (stereo not drawn) [Compound 270]	80 to 100	< 80	80 to 100	–
CN(C(=O)CC[S+](C)[O-])c1sc(-c2cncc(F)c2)nc1Cl (stereo not drawn) [Compound 272]	80 to 100	80 to 100	80 to 100	123 to 126
CCN(C(=O)CCSC)c1sc(-c2cncc(F)c2)nc1Cl [Compound 274]	80 to 100	80 to 100	80 to 100	–
CCN(C(=O)C(C)CSC)c1sc(-c2cncc(F)c2)nc1Cl (stereo not drawn) [Compound 279]	80 to 100	80 to 100	80 to 100	–
